According to patent publication US20240398813A1, “PHARMACEUTICAL COMPOSITION FOR PREVENTING OR TREATING OVERACTIVE BLADDER” (GWANGJU INSTITUTE OF SCIENCE AND TECHNOLOGY, priority 2021, published 2024):

Key:
[1] = target: T1, hyperactive mutant BKCa channels (hSlo G803D/N806K) stably expressed in AD 293 cells (Homo sapiens, UniProt Q12791, G856D/N859K); assay: Cell-based fluorescence assay (FluxOR Potassium Ion Channel Assay) of BKCa channel activation; set-up: key to Channel activity increase for 80 s (ΔRFU) at 6 μM: ratio of ΔRFU (RFU at 100 s − 20 s) to the same ΔRFU for vehicle
T1 construct: expressed in transfected cells
Protocol: AD 293 cells, which are derivatives of the commonly used HEK 293 cell line and stably express hyperactive mutant BKCa channels (hSlo G803D/N806K) to sensitively detect the effect (Lee et al., 2013), were cultured in Dulbecco' modified Eagle medium (Hyclone, Logan, Utah, […]) supplemented with 10% fetal bovine serum, and selected with 1 mg/mL Geneticin (Gibco, Amarillo, TX, USA). 20,000 cells per well were seeded on a 96-well clear-bottom black plate (Corning, New York, NY, USA) coated with poly-D-lysine (Gibco). BKCa channel activity was measured using the cell-based fluorescence assay, FluxOR Potassium Ion Channel Assay (Thermo Fisher Scientific, Waltham, MA, USA). Experimental procedures were performed according to the manufacturer's instructions. The cells were treated with test compounds dissolved in assay buffer for 15 minutes. Fluorescence was measured using a FlexStation3 multimode microplate reader (Molecular Devices, Silicon Valley, CA, USA) and SoftMax Pro (Molecular Devices). Excitation and emission wavelengths were set to 485 nm and 528 nm, respectively. Fluorescence signals were acquired every 2 seconds for 120 seconds and normalized by the relative fluorescence unit (RFU). The efficacy of a channel activator was determined by analyzing changes (ΔRFU) in the RFU for 80 seconds after channel stimulation.
Activation effects of the synthesized compounds on BKCa channels were evaluated using cell-based fluorescence assay. NS11021 was used as the positive control. The effects were determined based on the initial rate (vi) of channel activation and the apparent EC50 value obtained from fitting data of the dose-response curve. Here, Vi means change values for 4 seconds at the start of channel opening (vi={RFU(t=24 s)−RFU(t=20 s)}/4 s). […]

[2] = target: T2, BKCa channels co-expressed with the β4 subunits (rSlo α + KCNMB4) (Rattus norvegicus, UniProt Q62976); assay: Macroscopic current recording, BKCa channels co-expressed with β4 subunits in Xenopus oocytes; assay type: cell-based; details: 10 μM
T2 construct: expressed in transfected cells; host or cells: Xenopus laevis oocytes, cRNA alpha:beta 1:12
Text: The complete coding sequence (CDS) of each of rat KCNMA (rSlo α) (GenBank AF135265.1), KCNMB1 (rSlo 01) (GenBank FJ154955.1) and KCNMB4 (rSlo β4) (GenBank AY028605) was subcloned into pNBC2.0 or pNBC2.0. These vectors were designed to be expressed in Xenopus oocytes (Ha, T. S., Lim, H. H., Lee, G. E., Kim, Y. C., & Park, C. S. (2006). Electrophysiological characterization of benzofuroindole-induced potentiation of large-conductance Ca2+-activated K+ channels. Mol Pharmacol, 69(3), 1007-1014). The plasmid was linearized by NotI and complementary RNA (cRNA) was synthesized using the Ambion T7 mMESSAGE mMACHINE kit (Invitrogen, Carlsbad, CA, USA) according to the manufacturer's instructions. Xenopus laevis (KXRCR000001) was obtained from the Korea Xenopus Resource Center for Research (Chuncheon-si, Gangwon-do, Korea). Stage V-VI oocytes were surgically extracted from the ovarian lobes of X. laevis. A follicular cell layer was removed by culturing in Ca^2+-free oocyte Ringer's medium (86 mM NaCl, 1.5 mM KCl, 2 mM MgCl2 and 10 mM HEPES, pH 7.6) containing collagenase for 1.5 hours at room temperature. Oocytes without follicular layer were washed with ND-96 medium (96 mM NaCl, 2 mM KCl, 1.8 mM CaCl2), 1 mM MgCl2, 5 mM HEPES, […] gentamicin, pH 7.6). The prepared oocytes were stabilized overnight at 18° C. cRNA was injected into each oocyte (50 ng per oocyte) using a microdispenser (Drummond Scientific, Broomall, PA, USA). For co-expression of the β subunits, cRNA was mixed at a molar ratio of 1:12 (α:β) to induce sufficient co-assembly of the R subunits. After injection of cRNA, the oocytes were cultured in ND-96 medium for 1-3 days at 18° C. Before recording macroscopic currents, vitelline membranes of the oocytes were completely removed using fine forceps.
All macroscopic current recordings in the BKCa channels were performed using the gigaohm-seal patch-clamp method in an outside-out configuration (Ha et al., 2006). A patch pipette was made of borosilicate glass (WPI, Sarasota, FL, USA) and fire-polished by a resistance of 3-5 MQ. […]

T2 sequence (Q62976 whole entry): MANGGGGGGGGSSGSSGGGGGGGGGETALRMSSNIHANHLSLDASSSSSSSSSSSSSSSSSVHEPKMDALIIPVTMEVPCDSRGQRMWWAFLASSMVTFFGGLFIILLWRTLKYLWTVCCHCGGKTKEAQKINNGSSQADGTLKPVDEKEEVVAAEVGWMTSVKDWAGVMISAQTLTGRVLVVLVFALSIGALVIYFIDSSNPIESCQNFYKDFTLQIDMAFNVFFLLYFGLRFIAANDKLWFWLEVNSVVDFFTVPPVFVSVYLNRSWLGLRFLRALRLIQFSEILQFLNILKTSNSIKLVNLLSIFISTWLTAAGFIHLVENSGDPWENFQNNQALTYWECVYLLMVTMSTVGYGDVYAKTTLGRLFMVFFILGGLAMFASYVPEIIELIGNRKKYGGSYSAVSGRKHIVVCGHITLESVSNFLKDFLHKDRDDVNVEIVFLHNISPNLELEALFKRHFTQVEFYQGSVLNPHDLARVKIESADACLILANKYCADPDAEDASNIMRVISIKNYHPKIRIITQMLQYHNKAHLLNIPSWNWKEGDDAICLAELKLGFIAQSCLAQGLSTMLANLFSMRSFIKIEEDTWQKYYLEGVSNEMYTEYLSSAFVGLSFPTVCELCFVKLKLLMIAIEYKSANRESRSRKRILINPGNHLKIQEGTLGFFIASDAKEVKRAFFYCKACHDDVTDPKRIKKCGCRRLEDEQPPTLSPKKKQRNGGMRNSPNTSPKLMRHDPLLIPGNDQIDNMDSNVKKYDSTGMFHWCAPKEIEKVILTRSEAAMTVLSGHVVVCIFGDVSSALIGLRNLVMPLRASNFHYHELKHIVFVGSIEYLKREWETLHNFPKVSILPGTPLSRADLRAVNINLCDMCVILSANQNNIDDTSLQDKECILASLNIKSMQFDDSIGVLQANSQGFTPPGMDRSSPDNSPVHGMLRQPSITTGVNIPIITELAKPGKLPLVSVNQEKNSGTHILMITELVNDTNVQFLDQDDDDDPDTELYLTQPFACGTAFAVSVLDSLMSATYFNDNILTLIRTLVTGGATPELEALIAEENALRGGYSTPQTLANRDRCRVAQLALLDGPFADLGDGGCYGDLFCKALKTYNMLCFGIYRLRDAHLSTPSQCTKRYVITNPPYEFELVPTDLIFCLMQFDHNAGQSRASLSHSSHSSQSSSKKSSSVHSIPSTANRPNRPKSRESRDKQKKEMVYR
T2 sequence (Q9ESK8 whole entry partner): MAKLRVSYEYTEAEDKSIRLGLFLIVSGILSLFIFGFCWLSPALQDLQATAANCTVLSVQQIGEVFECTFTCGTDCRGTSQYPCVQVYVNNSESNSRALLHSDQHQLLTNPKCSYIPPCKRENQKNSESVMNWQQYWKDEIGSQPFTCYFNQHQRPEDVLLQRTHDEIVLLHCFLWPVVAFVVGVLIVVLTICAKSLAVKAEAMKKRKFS
T1 sequence (Q12791 whole entry G856D/N859K): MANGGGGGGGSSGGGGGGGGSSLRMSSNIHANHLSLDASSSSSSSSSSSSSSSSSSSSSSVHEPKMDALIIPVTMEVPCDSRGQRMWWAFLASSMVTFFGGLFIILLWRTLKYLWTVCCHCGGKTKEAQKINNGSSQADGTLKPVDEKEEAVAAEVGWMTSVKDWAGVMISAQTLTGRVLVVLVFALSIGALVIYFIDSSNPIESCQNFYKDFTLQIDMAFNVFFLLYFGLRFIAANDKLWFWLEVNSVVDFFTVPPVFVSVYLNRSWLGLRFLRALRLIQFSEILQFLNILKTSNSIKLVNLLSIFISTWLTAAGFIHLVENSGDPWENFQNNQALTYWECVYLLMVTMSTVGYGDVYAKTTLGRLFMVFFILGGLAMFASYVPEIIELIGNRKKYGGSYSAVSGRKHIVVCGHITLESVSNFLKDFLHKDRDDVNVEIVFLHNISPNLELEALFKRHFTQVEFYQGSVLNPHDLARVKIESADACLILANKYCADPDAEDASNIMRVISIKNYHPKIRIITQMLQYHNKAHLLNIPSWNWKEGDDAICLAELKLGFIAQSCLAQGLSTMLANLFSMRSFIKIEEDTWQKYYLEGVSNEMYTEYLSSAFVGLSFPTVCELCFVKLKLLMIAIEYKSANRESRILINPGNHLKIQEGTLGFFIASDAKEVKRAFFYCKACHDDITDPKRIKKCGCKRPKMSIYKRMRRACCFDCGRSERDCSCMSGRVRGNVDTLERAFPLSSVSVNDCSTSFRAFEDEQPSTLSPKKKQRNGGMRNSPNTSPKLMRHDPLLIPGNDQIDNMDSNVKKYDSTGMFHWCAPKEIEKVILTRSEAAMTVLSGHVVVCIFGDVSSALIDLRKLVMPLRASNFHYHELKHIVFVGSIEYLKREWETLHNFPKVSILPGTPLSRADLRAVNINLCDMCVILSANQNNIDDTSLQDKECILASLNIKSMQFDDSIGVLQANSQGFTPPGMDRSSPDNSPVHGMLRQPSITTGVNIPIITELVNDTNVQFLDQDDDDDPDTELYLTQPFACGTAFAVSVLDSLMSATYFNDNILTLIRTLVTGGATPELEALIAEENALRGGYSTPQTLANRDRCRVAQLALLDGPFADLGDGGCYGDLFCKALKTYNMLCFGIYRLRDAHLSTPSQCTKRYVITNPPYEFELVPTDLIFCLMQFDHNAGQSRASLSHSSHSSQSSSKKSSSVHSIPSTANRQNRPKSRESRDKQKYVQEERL

Cc1cccc(NC(=O)c2sc(=S)n3c2[nH]c(=O)c2cc(Br)ccc23)c1 [TTQC-1, 7-bromo-5-oxo-1-thioxo-N-(m-tolyl)-4,5-dihydro-1H-thiazolo[3,4-a]quinazoline-3-carboxamide]
increase in fluorescence induced by TTQC-1 in the presence of BKCa channel inhibitors ([1]; 2 μM TTQC-1, 1 μM paxillin and 0.1 μM iberiotoxin): removed
activation effect on the BKCa channel relative to LDD175 ([1]; 3 μM): 1.6 times
activation effect on the BKCa channels at a single concentration ([1]; 3 μM): most potent effect
effect (ΔRFU) relative to vehicle ([1]; 6 μM): 4.98±0.05 times
Initial velocity of channel activation for 4 s (vi) at 6 μM ([1]; 6 μM, first 4 s after channel stimulation): 9.77 s⁻¹
Channel activity increase for 80 s (ΔRFU) at 6 μM ([1]; 6 μM, normalized by vehicle): 4.98
concentration at which the Tl+ flux effect was saturated ([1]; 0.6-10 μM tested): 6 µM
TTQC-1 activation effect in the presence of 0.1 μM iberiotoxin ([1]; TTQC-1 at concentrations above 4 μM): activated the BKCa channels
TTQC-1 activation effect in the presence of 0.1 μM iberiotoxin ([1]; TTQC-1 at concentrations below 2 μM): eliminated
EC50 ([1]; fit of dose-response curve of initial rates, read-out: Apparent EC50 based on vi): 5.74 µM
effect on τ activation [2]: did not significantly affect
increase of τ deactivation ([2]; at 170 mV): 3.7 times
shift of G-V curve to the left ([2]; β4 co-expressed): 7.12±0.65 mV
